By GI50 is commonly meant the concentration giving 50% growth inhibition. The IC50 is the point on the concentration scale where inhibition reaches its midpoint.

Structures are written as SMILES. A value given as a limit tells only on which side of the number the result lay.

The subject of assay [1] is HL60 (acute myeloid leukemia cell line). The assay can be described thus: Cell-based proliferation assay for GI50, HL60. As to conditions: Homo sapiens, HL-60; HL60 cells, 96 h treatment. The protocol: (§1) Human cancer cell lines HL60 (acute myeloid leukemia cell line), Colo205 (colon adenocarcinoma cell line), HEL92.1.7 (erythroleukemia cell line) and MV4-11 (acute myeloid leukemia cell line) were obtained from ATCC. They were cultivated in the media according to the ATCC work instructions. Colo205 cells were seeded in 96-wells plate at 5000 cells per well. HEL92.1.7 and MV4-11 cells were seeded at 6000 cells per well while HL60 cells were seeded at 8000 cells per well in 96 well plate. The plates were incubated at 37° C., 5% CO2, for 24 h. Cells were treated with compounds at various concentrations for 96 h. Cell growth was then monitored using Celltiter96 Aqueous One Solution Cell Proliferation Assay from Promega (Madison Wis.). Dose response curves were plotted to determine GI50 values for the compounds using XL-fit (ID Business Solution, Emeryville, Calif.).

Assay [2] concerns MV4-11 (acute myeloid leukemia cell line). Nature of the assay: Cell-based proliferation assay for GI50, MV4-11. As to conditions: Homo sapiens; MV4-11 cells, 96 h treatment. As for the experimental part: as §1
The test system of assay [3] is HEL92.1.7 (erythroleukemia cell line). Nature of the assay: Cell-based proliferation assay for GI50, HEL92.1.7. The note with it: Homo sapiens, HEL 92.1.7; HEL92.1.7 cells, 96 h treatment. As for the experimental part: as §1
Another assay addresses T1, CDK2/CyclinA (Homo sapiens, UniProt P24941).
T1 construct: purchased Invitrogen PV3267
The assay can be described thus: In vitro kinase activity assay (PKLight), CDK2/Cyclin A. It is filed as biochemical. As to conditions: 0.5 μM ATP. The protocol:
(§2) The recombinant enzymes (CDK2/CyclinA, FLT3, JAK2 and JAK2 V617F) were purchased from Invitrogen (Cat #PV3267, 3182, 4210 and 4347 respectively). All assays were carried out in 384-well white microtiter plates using the PKLight assay system from Cambrex (East Rutherford, N.J.). This assay platform is essentially a luminometric assay for the detection of ATP in the reaction using a luciferase-coupled reaction. For CDK2/Cyclin A assay, the reaction mixture consisted of the following components in 25 μL assay buffer (50 mM Hepes pH 7.5, 10 mM MgCl2, 5 mM MnCl2, 5 mM BGP, 1 mM DTT, 0.1 mM sodium orthovanadate), 1.4 μg/mL of CDK2/Cyclin A complex, 0.5 μM of RbING substrate (Invitrogen, Cat #PV2939) and 0.5 μM of ATP. The compounds were tested at 8 concentrations prepared from 4-fold serial dilution starting at 10 μM. The reaction was incubated at room temperature for 2 hr. 13 μL of PKLight ATP detection reagent was added and the reaction was incubated for 10 min. Luminescence signals were detected on a multi-label plate reader (Victor^2 V 1420, Perkin-Elmer). The other kinase assays were identical except for the following differences in reagents. For FLT3 assays, the reaction contained 2.0 μg/mL FLT3 enzyme, 5 μM of poly(Glu,Tyr) substrate (Sigma, Cat #P0275) and 4 μM of ATP. For JAK2 assays, the reaction contained 0.6 μg/mL of JAK2 enzyme, 2 μM of poly(Glu,Ala,Tyr) substrate (Sigma, Cat #P3899) and 0.2 μM of ATP. For JAK2 V617F mutant assays, the reaction contained 8.0 μg/mL of JAK2 mutant enzyme, 2 μM of poly(Glu,Ala,Tyr) substrate (Sigma, Cat #P3899) and 0.2 μM of ATP. The analytical software, Prism 4.0 (GraphPad Software Pte Ltd) was used to generate IC50 values from the data.

The next assay concerns the target T2, FLT3 (Homo sapiens, UniProt P36888).
T2 construct: purchased Invitrogen PV3182
T2 sequence (P36888 27-993): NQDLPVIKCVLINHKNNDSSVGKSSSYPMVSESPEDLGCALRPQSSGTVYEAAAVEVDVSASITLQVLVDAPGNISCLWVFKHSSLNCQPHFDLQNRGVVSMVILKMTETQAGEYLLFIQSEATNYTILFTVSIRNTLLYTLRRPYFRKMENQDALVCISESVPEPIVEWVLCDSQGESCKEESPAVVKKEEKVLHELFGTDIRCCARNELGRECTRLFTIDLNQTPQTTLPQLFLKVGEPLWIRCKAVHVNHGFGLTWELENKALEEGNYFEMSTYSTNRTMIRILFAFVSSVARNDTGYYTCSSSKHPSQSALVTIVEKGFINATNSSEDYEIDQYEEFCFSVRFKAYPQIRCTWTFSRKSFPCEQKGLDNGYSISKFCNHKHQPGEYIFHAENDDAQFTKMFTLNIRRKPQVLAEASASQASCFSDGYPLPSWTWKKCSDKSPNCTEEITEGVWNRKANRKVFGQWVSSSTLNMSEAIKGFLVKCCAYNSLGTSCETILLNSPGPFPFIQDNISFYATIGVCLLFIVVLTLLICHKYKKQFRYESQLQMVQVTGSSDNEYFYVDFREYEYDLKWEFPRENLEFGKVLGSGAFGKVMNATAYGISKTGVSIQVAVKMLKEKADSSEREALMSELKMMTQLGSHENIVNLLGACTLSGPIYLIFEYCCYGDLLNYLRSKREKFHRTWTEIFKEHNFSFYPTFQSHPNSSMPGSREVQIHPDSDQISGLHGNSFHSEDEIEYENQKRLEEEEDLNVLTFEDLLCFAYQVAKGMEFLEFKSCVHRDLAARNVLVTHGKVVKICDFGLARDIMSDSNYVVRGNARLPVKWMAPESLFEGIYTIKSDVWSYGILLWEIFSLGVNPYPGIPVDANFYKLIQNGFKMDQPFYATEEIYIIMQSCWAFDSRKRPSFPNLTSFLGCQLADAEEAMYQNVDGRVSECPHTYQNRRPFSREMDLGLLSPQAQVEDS
The assay can be described thus: In vitro kinase activity assay (PKLight), FLT3. It is filed as biochemical. The protocol: as §2, with “All” for “The recombinant enzymes (CDK2/CyclinA, FLT3, JAK2 and JAK2 V617F) were purchased from Invitrogen (Cat #PV3267, 3182, 4210 and 4347 respectively). All”, “For JAK2 V617F mutant assays, the reaction contained 8.0 μg/mL of JAK2 mutant enzyme, 2 μM of poly(Glu,Ala,Tyr) substrate (Sigma, Cat #P3899) and 0.2 μM of ATP.” left out

In another assay the target is T3, JAK2 (Homo sapiens, UniProt O60674).
T3 construct: purchased Invitrogen PV4210
Nature of the assay: In vitro kinase activity assay (PKLight), JAK2. It counts as biochemical. As for the experimental part:
as §2, with “All” for “The recombinant enzymes (CDK2/CyclinA, FLT3, JAK2 and JAK2 V617F) were purchased from Invitrogen (Cat #PV3267, 3182, 4210 and 4347 respectively). All”, “For JAK2 V617F mutant assays, the reaction contained 8.0 μg/mL of JAK2 mutant enzyme, 2 μM of poly(Glu,Ala,Tyr) substrate (Sigma, Cat #P3899) and 0.2 μM of ATP.” left out

Assay [4] concerns Colo205 (colon adenocarcinoma cell line). The assay can be described thus: Cell-based proliferation assay for GI50, Colo205. As to conditions: Homo sapiens, COLO 205; Colo205 cells, 96 h treatment. The protocol: as §1

T3 sequence (O60674 whole entry): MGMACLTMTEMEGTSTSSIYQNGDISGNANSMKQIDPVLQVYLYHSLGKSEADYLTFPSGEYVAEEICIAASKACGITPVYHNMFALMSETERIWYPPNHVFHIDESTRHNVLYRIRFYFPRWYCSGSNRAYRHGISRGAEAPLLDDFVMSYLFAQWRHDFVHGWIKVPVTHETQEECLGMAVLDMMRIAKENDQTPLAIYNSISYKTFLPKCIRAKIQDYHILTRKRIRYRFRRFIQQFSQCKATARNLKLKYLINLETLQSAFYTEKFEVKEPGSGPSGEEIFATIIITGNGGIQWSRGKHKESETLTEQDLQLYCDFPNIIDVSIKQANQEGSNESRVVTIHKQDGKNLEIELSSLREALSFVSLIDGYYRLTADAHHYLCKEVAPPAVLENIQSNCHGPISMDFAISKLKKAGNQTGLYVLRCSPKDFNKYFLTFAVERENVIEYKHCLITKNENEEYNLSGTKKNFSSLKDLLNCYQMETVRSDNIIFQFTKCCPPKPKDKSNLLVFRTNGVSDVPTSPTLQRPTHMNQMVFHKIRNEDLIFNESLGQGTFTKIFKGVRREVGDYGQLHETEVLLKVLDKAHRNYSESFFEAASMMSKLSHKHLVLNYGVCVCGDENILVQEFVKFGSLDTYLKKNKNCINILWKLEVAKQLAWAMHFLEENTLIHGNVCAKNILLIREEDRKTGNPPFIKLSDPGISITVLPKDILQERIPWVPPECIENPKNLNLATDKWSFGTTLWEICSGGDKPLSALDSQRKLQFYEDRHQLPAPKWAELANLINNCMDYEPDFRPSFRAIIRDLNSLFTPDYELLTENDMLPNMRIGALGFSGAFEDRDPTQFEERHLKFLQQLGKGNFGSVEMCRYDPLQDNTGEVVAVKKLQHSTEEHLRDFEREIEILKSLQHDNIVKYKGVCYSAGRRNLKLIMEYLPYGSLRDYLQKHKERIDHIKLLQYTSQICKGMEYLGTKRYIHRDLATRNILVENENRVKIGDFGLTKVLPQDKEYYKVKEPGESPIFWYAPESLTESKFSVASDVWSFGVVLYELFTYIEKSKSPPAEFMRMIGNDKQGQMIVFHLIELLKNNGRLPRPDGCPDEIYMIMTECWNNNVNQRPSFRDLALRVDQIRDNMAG

For the molecule `C1=C/COCc2cc(ccc2N2CCOCC2)Nc2nccc(n2)-c2cccc(c2)COC/1` [Compound 33], the figures for the concentration for 50% growth inhibition (GI50) in assay [1], in assay [2] and in assay [3] were 1000 to 5000 nM, not above 1000 nM and 1000 to 5000 nM, respectively. Moreover, the 50% inhibitory concentration (IC50) on CDK2/CyclinA was more than 5000 nM; on FLT3, not above 1000 nM; on JAK2, not above 1000 nM.
As to `C1=C/COCc2cc(ccc2OCCN2CCCC2)Nc2nccc(n2)-c2coc(c2)COC/1` [Compound 50], the concentration for 50% growth inhibition (GI50) is not above 1000 nM in assay [1], not above 1000 nM in assay [2] and 1000 to 5000 nM in assay [3]. Also, the IC50 at CDK2/CyclinA was more than 5000 nM; on FLT3 it was not above 1000 nM; on JAK2, not above 1000 nM.
Take `C1=C/COCc2cc(ccc2OCCN2CCCC2)Nc2nccc(n2)-c2cncc(c2)COC/1` [Compound 56]: the figures for the GI50 in assay [1], in assay [2] and in assay [3] were not above 1000 nM, not above 1000 nM and 1000 to 5000 nM, respectively. For the same molecule, the IC50 was 1000 to 5000 nM at CDK2/CyclinA, not above 1000 nM against FLT3 and not above 1000 nM at JAK2.
Consider `COc1cc2cc(c1OCCN1CCCC1)COC/C=C/COCc1cccc(c1)-c1ccnc(n1)N2` [Compound 32], for which the 50% growth inhibitory concentration (GI50) in assay [1] is not above 1000 nM; in assay [2], not above 1000 nM; in assay [3], 1000 to 5000 nM. For the same molecule, the half-maximal inhibitory concentration (IC50) is 1000 to 5000 nM at CDK2/CyclinA, not above 1000 nM against FLT3 and not above 1000 nM at JAK2.
`C1=C2COC/C=C/COCc3cc(ccc3OCCN3CCCC3)Nc3nccc(n3)C(=C1)O2` [Compound 38]: the GI50 in assay [1] is not above 1000 nM; in assay [2] it was not above 1000 nM; in assay [3], 1000 to 5000 nM. Further, the results for the IC50 on CDK2/CyclinA, at FLT3 and at JAK2 were more than 5000 nM, not above 1000 nM and not above 1000 nM, respectively.
Turning to `C1=C/COCc2cc(ccc2OCCN2CCCC2)Nc2nccc(n2)-c2cc(co2)COC/1` [Compound 55], the GI50 in assay [1] is 1000 to 5000 nM; in assay [2], not above 1000 nM; in assay [3] it was 1000 to 5000 nM. Besides, the half-inhibitory concentration (IC50) against CDK2/CyclinA was more than 5000 nM; against FLT3, not above 1000 nM; at JAK2, not above 1000 nM.
Consider `Fc1cc2cc(c1)-c1ccnc(n1)Nc1ccc(OCCN3CCCC3)c(c1)COC/C=C/CCO2` [Compound 36], for which the concentration for 50% growth inhibition (GI50) in assay [1] was not above 1000 nM; in assay [2] it was not above 1000 nM; in assay [3], 1000 to 5000 nM. Also, the IC50 was 1000 to 5000 nM at CDK2/CyclinA, not above 1000 nM on FLT3 and not above 1000 nM on JAK2.
For the molecule `COc1ccc2cc1COC/C=C\COc1cccc(c1)-c1ccnc(n1)N2` [Compound 7], the GI50 is not above 1000 nM in assay [1], more than 5000 nM in assay [2], more than 5000 nM in assay [3] and more than 5000 nM in assay [4]. The results for the IC50 on CDK2/CyclinA, against FLT3 and at JAK2 were more than 5000 nM, not above 1000 nM and more than 5000 nM, respectively.
Turning to `C1=C2COC/C=C/COCc3cc(ccc3OCCN3CCCC3)Nc3nccc(n3)C(=C1)S2` [Compound 48], the 50% growth inhibitory concentration (GI50) in assay [1], in assay [2], in assay [3] and in assay [4] was not above 1000 nM each time. Moreover, the IC50 is more than 5000 nM on CDK2/CyclinA, not above 1000 nM at FLT3 and not above 1000 nM against JAK2.
For `Fc1ccc2cc1COC/C=C/COCc1cc(ccc1OCCN1CCCC1)Nc1nccc-2n1` [Compound 46], the 50% growth inhibitory concentration (GI50) in assay [1] is not above 1000 nM; in assay [2] it was not above 1000 nM; in assay [3], 1000 to 5000 nM. The IC50 against CDK2/CyclinA was 1000 to 5000 nM; at FLT3 it was not above 1000 nM; at JAK2 it was not above 1000 nM.
Turning to `C1=C/COCc2cc(ccc2OCCN2CCCC2)Nc2nccc(n2)-c2csc(c2)COC/1` [Compound 52], the 50% growth inhibitory concentration (GI50) in assay [1], in assay [2] and in assay [3] was not above 1000 nM in each case. Further, the 50% inhibitory concentration (IC50) against CDK2/CyclinA is more than 5000 nM; against FLT3, not above 1000 nM; on JAK2, not above 1000 nM.
For the molecule `CN1CCN(c2ccc3cc2COC/C=C/COCc2cccc(c2)-c2ccnc(n2)N3)CC1` [Compound 40], the concentration for 50% growth inhibition (GI50) in assay [1], in assay [2] and in assay [3] was not above 1000 nM throughout. The values for the IC50 at CDK2/CyclinA, against FLT3 and against JAK2 were more than 5000 nM, not above 1000 nM and not above 1000 nM, respectively.
Turning to `C1=C/COCc2cc(ccc2OCCN2CCCC2)Nc2nccc(n2)-c2cccc(c2)COC/1` [Compound 13], the 50% growth inhibitory concentration (GI50) was not above 1000 nM in assay [1], not above 1000 nM in assay [2], 1000 to 5000 nM in assay [3] and 1000 to 5000 nM in assay [4]. Moreover, the IC50 against CDK2/CyclinA is 1000 to 5000 nM.
Consider `COc1ccc2cc1COC/C=C/COc1cccc(c1)-c1ccnc(n1)N2` [Compound 6], for which the GI50 in assay [1] and in assay [4] was 1000 to 5000 nM throughout. For the same molecule, the half-inhibitory concentration (IC50) on CDK2/CyclinA, on FLT3 and against JAK2 was not above 1000 nM throughout.
Turning to `c1cc2cc(c1)-c1ccnc(n1)Nc1ccc(OCCN3CCCC3)c(c1)COCC1CC1COC2` (stereo not drawn) [Compound 53], the GI50 is not above 1000 nM in assay [1], not above 1000 nM in assay [2] and 1000 to 5000 nM in assay [3]. Moreover, the IC50 on CDK2/CyclinA is 1000 to 5000 nM; against FLT3 it was not above 1000 nM; against JAK2, not above 1000 nM.

Source of the values: US9573964B2, “Oxygen linked pyrimidine derivatives” (CTI BIOPHARMA CORP., priority 2005, dated 2017).
